Measured values reported in ChEMBL document CHEMBL1933028, “Discovery of cyclic amine-substituted benzoic acids as PPARα agonists” (Bioorg Med Chem Lett, 2012).

How the values were obtained:
[1] = molecular target: T1, Peroxisome proliferator-activated receptor alpha (Homo sapiens, UniProt Q07869); assay: Transactivation of human PPARalpha expressed in CHO-K1 cells; format: cell-based
T1 sequence (Q07869 whole entry): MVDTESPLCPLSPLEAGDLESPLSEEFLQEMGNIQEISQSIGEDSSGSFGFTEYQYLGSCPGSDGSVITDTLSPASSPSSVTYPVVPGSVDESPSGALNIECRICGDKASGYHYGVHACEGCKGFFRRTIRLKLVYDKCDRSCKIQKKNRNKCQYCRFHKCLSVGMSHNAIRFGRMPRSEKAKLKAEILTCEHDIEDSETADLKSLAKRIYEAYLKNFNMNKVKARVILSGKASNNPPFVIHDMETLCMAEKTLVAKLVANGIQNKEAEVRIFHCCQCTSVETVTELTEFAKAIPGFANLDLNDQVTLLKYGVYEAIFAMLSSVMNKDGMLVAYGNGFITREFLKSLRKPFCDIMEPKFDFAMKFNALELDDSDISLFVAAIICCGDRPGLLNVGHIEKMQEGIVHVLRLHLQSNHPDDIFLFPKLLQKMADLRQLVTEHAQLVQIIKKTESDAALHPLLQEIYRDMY

[2] = molecular target: T2, Peroxisome proliferator-activated receptor delta (Homo sapiens, UniProt Q03181); assay: Transactivation of human PPARdelta expressed in CHO-K1 cells; format: cell-based
T2 sequence (Q03181 whole entry): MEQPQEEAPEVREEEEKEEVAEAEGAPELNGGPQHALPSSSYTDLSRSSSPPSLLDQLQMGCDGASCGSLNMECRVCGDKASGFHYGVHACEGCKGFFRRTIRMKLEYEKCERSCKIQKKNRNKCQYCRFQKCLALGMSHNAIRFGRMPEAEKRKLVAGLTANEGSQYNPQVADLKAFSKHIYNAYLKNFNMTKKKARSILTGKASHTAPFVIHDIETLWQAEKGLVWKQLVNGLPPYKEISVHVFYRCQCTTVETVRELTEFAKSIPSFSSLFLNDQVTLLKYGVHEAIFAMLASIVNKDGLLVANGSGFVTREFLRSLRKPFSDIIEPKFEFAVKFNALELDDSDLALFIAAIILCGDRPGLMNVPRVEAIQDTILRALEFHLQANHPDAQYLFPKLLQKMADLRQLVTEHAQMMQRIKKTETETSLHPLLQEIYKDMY

[3] = molecular target: T3, Peroxisome proliferator-activated receptor alpha (Mus musculus, UniProt P23204); assay: Agonist activity at mouse PPARalpha; format: functional
T3 sequence (P23204 whole entry): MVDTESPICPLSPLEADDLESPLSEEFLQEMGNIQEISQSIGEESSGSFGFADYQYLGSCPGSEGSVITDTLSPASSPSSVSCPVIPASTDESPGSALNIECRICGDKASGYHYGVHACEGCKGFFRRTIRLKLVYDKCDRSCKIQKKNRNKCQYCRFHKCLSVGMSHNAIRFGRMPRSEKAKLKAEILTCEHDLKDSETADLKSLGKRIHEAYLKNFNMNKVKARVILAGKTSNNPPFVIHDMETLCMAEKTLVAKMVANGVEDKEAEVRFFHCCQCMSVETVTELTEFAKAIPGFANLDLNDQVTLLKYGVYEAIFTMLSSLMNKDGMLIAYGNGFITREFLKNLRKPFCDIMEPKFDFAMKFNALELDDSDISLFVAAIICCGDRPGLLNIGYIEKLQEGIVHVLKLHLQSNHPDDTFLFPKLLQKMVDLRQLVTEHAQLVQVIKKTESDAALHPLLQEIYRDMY

[4] = Oral bioavailability in rat at 1 mg/kg; format: ADME, organism-based; conditions: in vivo
Canis familiaris = assay: Volume of distribution at steady state in dog at 0.3 mg/kg, po; format: ADME, organism-based, Canis lupus familiaris; design: dose 0.3 mg/kg, route oral; conditions: in vivo

EC50 [1]: 0.008 µM
EC50 [2]: 3 µM
EC50 [3]: 4.7 µM
bioavailability [4]: 47.6%
Vdss (Canis familiaris): 1.66 L/kg
SMILES: Cc1nc(-c2ccc(Cl)cc2)sc1C(=O)N[C@H]1CCCN(c2cccc(C(=O)O)c2)C1
